In patent publication US7951406B2, “Therapeutic compounds isolated from Calomeria amaranthoides” (Caroline Van Haaften, priority 2004, dated 2011):

How the values were obtained:
human skin fibroblasts = assay: Cell viability by photomicrography, comparison with Cisplatinum and Docetaxol, fibroblasts; conditions: 10 μg and 100 μg, compared with 1 μg; 48 hours
[1] = system: ovarian cancer cell line JC; conditions: 48 hours

Structure (SMILES)	cell viability in fibroblasts (human skin fibroblasts)	cytotoxicity in JC cells, treatments compared ([1]; 10 μg dosage level)	resistance of JC cells [1]
N.N.[Cl][Pt][Cl] [Cisplatinum]	greater reduction in cell viability	–	–
CC(=O)O[C@@]12CO[C@@H]1C[C@H](O)[C@@]1(C)C(=O)[C@H](O)C3=C(C)[C@@H](OC(=O)[C@H](O)[C@@H](NC(=O)OC(C)(C)C)c4ccccc4)C[C@@](O)([C@@H](OC(=O)c4ccccc4)[C@H]21)C3(C)C [Docetaxol]	greater reduction in cell viability	less cytotoxic than either the Calomeria extract or Cisplatinum	more resistant
